According to US7405081B2, “Methods and kits for identifying scavengers of reactive oxygen species (ROS)” (priority 2001, dated 2008):
Marks after values point to notes of the source that are not given here.

How the values were obtained:
katA-gfp fusion = conditions: AG6 in MG/L, 30-120 μM H2O2, 2 hours
Procedure: To determine if H2O2 can induce the katA expression, AG6 was grown in MG/L liquid medium overnight at 28° C. The cells were harvested and resuspended in fresh MG/L liquid medium to a final concentration of OD600=0.5. Aliquots (2 ml) of the cultures were transferred into sterile tubes, and H2O2 was added to the tubes to final concentrations of 30 μM, 60 μM and 120 μM. The cell suspensions were incubated at 28° C. for 2 hours. Then 1 ml of each cell suspension was centrifuged, washed and resuspended in the Laemmli (1970) sample buffer, and subjected to Western blot as described later.
To determine whether the expression of katA can be induced by H2O2, like some of other bacterial catalases (Loewen, 1997), AG6 was treated with low concentrations of H2O2 (30-120 μM) in liquid MG/L medium and the katA-gfp expression levels were then determined.

[1] = tested on: katA-gfp fusion in AG6 cells; assay: Extracellular catalase added to IB plates, GFP expression of AG6 cells; format: cell-based, Agrobacterium tumefaciens; conditions: 1 or 5 microgram per ml in IB plates
Procedure: Catalase purchased from Sigma was added into IB plates at a final concentration of 1 or 5 microgram per ml. AG6 cells (carrying the katA-gfp fusion) were then grown on the IB plate. […] To ensure that the catalase in the IB medium was still active, hydrogen peroxide was dropped onto the catalase-containing plate. Air bubbles were instantly visible in the catalase-containing plate; no air bubble was found in the control catalase-free IB plate. […] Therefore, it can be concluded that extracellular catalase could not remove the intracellular hydrogen peroxide.

[2] = Catalase activity assay in whole bacterial cells (Amplex Red Catalase Assay Kit); format: cell-based, Agrobacterium tumefaciens; conditions: whole cells grown on IB plates
Procedure: Catalase activity assay: The catalase activity in whole bacterial cells was determined as previously described (Maciver and Hansen, 1996) except using the Amplex Red Catalase Assay Kit (Molecular Probes Inc., USA). Briefly, A. tumefaciens strains were grown at 28° C. for 24 hr on IB plates. The cells were harvested, washed and resuspended at OD600=1.0 in 50 mM phosphate-buffer (pH 7.4). For the strains with the wild type katA [A348, AG6 (pXQ9), and AG6 (pXQ23)], 100 μl cell suspension of each sample was incubated with 50 μl 40 μM H2O2 at time intervals of 0, 30 sec, 1 min and 2 min.
For the strains with the katA mutants [AG6, AG6 (pXQ11), AG6 (pXQ22), AG6 (pXQ26) and AG6 (pXQ27)], 100 μl cell suspension of each sample was incubated with 50 μl 5 μM H2O2 at time intervals of 0, 1, 2, and up to 6 min. The amount of H2O2 left after degradation by the bacterial catalase was then determined by adding 50 μl Amplex Red reagent N-acetyl-3, 7-dihydroxyphenoxazine at 25 μM and 0.4 U/ml horse radish peroxidase provided by the kit. The fluorometric assay was conducted by the same procedure as described above for the measurement of intracellular H2O2. The cell suspensions without the added H2O2 were used as the blank. Solutions of crystalline bovine catalase (Sigma) were used to standardize this assay.
The catalase activity in whole bacterial cells was determined as described above in Example 1 (“Catalase activity assay”).

aopB-gfp = aopB-gfp expression in strain CGI1 (specificity control); format: cell-based, Agrobacterium tumefaciens; conditions: pXQ9 introduced into CGI1, IB (pH 5.5)
Procedure: To study the katA gene expression in different genetic backgrounds, A. tumefaciens strains A348, AG6, AG6 (pSW172), AG6 (pXQ9), A613, CGI1 and CGI1 (pXQ9) were grown at 28° C. for 24 hours on IB (pH 5.5) agar plates. The fluorescence of each strain was determined as described above.
To determine if katA could specifically repress katA-gfp, pXQ9 was introduced into a different mini-Tn5 transposon mutant strain CGI1, which contained the transposon insertion at a chromosomal gene aopB and could produce bright green fluorescence under UV light.

[3] = Peroxidase activity staining of cell extracts; format: biochemical, Agrobacterium tumefaciens; conditions: same cell extracts

In the case of OO [H2O2, hydrogen peroxide], the “katA-gfp expression levels in presence of H2O2” value (katA-gfp fusion) is reported as “increased significantly”.

In the case of Catalase, the “Repression of katA-gfp expression by catalase added to the medium” value [1] is reported as “did not repress katA-gfp expression”.

For “KatA: Agrobacterium tumefaciens catalase encoded by katA; putative protein of 723 amino acids, 78.7 kDa”, the Catalase activity ([2]; gene on plasmid in AG6, driven by katA and lac promoters (pXQ23, pXQ26, pXQ27)) was 77145.5 ± 440.3 unit/10^8 cells, the Catalase activity ([2]; gene on plasmid in AG6, driven by katA promoter (pXQ9, pXQ11, pXQ22)) was 3997.3 ± 459.1 unit/10^8 cells and the Catalase activity ([2]; strain AG6 (katA disrupted by mini-Tn5)) was 175.2 ± 20.2^c unit/10^8 cells. For the same compound, the Catalase activity ([2]; wild type strain A348) was 1486.2 ± 149.5 unit/10^8 cells, the “Repression of aopB-gfp expression” value (aopB-gfp) was “did not repress” and the “Peroxidase activity associated with the catalase activity bands” value [3] was “no peroxidase activity”.
